For one test, the target named is T1, HiBit-BRM fusion protein (Homo sapiens, UniProt P51531).
T1 construct: expressed in transfected cells
The test is described as follows: HiBiT-BRM cell-based degradation assay (Nano-Glo HiBiT Lytic Detection, 24 h). The note with it: stable HeLa cell line expressing HiBiT-BRM, top dose 30 μM. The method in brief:
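Luminescence from HiBiT/LgBiT complementation after lysis reports remaining HiBiT-BRM in stable HeLa cells exposed to compound for 24 h. Dosing used 3-fold serial dilutions, 10 points, 30 μM top final concentration. DMSO and a 2 μM BRM/BRG1 degrader standard defined 0% and 100% degradation.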
(HiBiT is a short tag that completes a luciferase, so light tracks the accessible tagged protein.)

Test [1] concerns the target T2, HiBit-BRG1 fusion protein (Homo sapiens, UniProt P51532).
T2 construct: expressed in transfected cells
Put plainly: HiBiT-BRG1 cell-based degradation assay (Nano-Glo HiBiT Lytic Detection, 24 h). The note with it: stable HeLa cell line expressing HiBit-BRG1 and LgBit, top dose 30 μM, read-out: BRG1 HiBit Degradation Maximum (%). The method in brief:
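HeLa cells stably expressing HiBiT-BRG1 plus LgBiT were treated with 10-point 3-fold compound dilutions (top 30 μM final) for 24 h. Lytic Nano-Glo HiBiT luminescence was read. % degradation was normalised between DMSO (high control) and 2 μM of a reference BRM/BRG1 degrader (low control).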

Each structure is given as a SMILES string. Bounds are passed on as bounds.

Results on 17 compounds are retold here after patent US12552775B2, “Compounds and uses thereof” (Foghorn Therapeutics Inc., priority 2020, dated 2026).

T2 sequence (P51532 whole entry, the tested form may be a part): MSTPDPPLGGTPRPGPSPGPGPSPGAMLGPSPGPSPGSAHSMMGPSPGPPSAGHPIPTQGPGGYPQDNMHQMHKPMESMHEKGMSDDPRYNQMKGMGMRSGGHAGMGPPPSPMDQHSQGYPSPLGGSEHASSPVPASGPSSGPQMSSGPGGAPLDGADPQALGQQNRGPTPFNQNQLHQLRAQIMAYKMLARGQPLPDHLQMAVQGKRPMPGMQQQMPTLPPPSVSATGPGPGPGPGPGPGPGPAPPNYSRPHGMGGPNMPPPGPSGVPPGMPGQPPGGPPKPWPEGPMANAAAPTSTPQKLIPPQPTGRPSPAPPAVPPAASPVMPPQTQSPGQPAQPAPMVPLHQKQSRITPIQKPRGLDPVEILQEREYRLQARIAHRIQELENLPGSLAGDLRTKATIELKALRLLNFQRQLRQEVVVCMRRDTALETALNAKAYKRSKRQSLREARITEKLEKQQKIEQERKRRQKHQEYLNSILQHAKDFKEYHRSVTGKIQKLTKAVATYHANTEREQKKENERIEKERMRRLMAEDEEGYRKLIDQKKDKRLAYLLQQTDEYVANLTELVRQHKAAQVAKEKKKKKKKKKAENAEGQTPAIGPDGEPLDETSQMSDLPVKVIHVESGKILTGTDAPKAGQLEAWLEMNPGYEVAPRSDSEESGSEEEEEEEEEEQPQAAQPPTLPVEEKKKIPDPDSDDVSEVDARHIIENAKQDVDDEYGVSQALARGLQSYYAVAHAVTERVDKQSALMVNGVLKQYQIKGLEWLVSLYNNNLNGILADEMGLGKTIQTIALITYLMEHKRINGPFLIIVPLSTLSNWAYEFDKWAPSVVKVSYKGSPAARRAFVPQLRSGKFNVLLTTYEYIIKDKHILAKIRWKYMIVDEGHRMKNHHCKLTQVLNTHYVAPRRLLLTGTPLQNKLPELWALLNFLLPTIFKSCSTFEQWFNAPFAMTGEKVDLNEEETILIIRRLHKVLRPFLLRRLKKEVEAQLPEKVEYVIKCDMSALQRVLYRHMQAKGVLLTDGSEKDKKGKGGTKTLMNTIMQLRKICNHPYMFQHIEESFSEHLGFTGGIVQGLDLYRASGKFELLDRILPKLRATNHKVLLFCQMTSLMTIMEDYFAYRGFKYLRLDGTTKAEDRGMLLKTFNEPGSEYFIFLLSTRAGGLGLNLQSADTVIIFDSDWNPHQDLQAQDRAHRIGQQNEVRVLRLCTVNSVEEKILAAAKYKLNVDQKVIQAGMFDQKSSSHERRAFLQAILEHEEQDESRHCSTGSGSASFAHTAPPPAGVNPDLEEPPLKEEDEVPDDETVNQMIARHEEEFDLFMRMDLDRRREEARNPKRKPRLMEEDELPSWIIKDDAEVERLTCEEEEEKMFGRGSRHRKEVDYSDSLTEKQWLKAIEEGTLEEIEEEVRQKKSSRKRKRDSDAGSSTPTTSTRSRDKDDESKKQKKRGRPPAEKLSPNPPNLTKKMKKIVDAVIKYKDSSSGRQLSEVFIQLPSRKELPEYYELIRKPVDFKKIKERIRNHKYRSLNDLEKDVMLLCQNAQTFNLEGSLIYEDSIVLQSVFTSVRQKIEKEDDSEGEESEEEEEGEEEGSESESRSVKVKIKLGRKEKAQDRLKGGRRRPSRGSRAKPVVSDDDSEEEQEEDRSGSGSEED
T1 sequence (P51531 whole entry, the tested form may be a part): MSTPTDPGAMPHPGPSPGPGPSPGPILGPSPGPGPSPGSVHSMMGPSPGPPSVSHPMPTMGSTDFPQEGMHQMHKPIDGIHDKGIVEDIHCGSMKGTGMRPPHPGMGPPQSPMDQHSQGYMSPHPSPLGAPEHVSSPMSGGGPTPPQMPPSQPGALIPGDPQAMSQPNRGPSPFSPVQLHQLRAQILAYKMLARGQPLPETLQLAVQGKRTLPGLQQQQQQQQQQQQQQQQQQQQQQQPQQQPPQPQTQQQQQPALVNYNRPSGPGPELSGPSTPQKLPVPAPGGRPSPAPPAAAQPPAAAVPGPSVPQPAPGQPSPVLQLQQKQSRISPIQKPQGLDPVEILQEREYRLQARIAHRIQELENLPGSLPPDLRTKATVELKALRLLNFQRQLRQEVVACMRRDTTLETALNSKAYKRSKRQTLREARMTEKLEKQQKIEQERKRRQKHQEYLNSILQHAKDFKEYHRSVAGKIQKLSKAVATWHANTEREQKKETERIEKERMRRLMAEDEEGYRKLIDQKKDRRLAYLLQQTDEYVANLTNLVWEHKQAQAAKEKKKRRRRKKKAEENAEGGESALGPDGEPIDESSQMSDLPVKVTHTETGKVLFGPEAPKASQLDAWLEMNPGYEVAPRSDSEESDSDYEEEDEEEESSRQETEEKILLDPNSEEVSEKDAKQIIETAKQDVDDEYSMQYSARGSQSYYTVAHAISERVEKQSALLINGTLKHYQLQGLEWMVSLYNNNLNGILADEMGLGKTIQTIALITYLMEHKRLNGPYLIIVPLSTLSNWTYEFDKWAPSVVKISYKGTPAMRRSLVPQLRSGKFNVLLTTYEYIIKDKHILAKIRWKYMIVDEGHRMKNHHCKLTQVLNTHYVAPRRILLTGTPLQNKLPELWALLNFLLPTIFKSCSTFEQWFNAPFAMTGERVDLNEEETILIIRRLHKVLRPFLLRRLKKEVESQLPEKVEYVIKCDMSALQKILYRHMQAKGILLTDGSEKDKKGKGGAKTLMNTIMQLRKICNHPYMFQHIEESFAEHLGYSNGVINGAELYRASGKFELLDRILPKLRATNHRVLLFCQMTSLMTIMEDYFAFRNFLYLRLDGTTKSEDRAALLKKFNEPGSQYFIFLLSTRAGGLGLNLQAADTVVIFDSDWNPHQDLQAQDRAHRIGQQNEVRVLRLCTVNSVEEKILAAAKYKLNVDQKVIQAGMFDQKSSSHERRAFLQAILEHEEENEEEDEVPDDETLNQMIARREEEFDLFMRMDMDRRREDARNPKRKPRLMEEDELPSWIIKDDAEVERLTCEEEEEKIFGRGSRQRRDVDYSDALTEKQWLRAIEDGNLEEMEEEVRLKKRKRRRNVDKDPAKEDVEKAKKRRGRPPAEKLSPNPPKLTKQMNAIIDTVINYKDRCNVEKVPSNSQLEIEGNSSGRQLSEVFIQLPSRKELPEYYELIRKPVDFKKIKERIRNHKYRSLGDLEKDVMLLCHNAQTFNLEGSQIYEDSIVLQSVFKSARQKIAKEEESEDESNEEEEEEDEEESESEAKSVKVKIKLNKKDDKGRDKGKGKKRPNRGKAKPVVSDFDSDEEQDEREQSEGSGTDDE

Regarding `Nc1nnc(-c2ccccc2O)cc1OCC12CC(CNC(=O)CCOCCOCCOc3ccc4c(c3)C(=O)N(C3CCC(=O)NC3=O)C4=O)(C1)C2` (stereo not shown) [Compound 1, N-[[3-([[3-amino-6-(2-hydroxyphenyl)pyridazin-4-yl]oxy]methyl)bicyclo[1.1.1]pentan-1-yl]methyl]-3-[2-(2-[[2-(2,6-dioxopiperidin-3-yl)-1,3-dioxoisoindol-5-yl]oxy]ethoxy)ethoxy]propanamide], the “BRM HiBit Degradation Maximum (%)” value on HiBit-BRM fusion protein is reported as “C (“C” indicates maximum degradation < 50%)”. In test [1], the Dmax was below 50%.

Take `Nc1nnc(-c2ccccc2O)cc1OCC12CC(CNC(=O)CCOCCOCCNc3cccc4c3C(=O)N(C3CCC(=O)NC3=O)C4=O)(C1)C2` (stereo not shown) [Compound 11, N-[[3-([[3-amino-6-(2-hydroxyphenyl)pyridazin-4-yl]oxy]methyl)bicyclo[1.1.1]pentan-1-yl]methyl]-3-[2-(2-[[2-(2,6-dioxopiperidin-3-yl)-1,3-dioxoisoindol-4-yl]amino]ethoxy)ethoxy]propanamide]: the “BRM HiBit Degradation Maximum (%)” value on HiBit-BRM fusion protein is reported as “C (“C” indicates maximum degradation < 50%)”. For the same compound, the Dmax in test [1] was below 50%.

Turning to `Cc1ncsc1-c1ccc(CNC(=O)[C@@H]2C[C@@H](O)CN2C(=O)[C@@H](NC(=O)CCCCCCCCCCCCC(=O)NCC23CC(COc4cc(-c5ccccc5O)nnc4N)(C2)C3)C(C)(C)C)cc1` [Compound 40, N1-((3-(((3-amino-6-(2-hydroxyphenyl)pyridazin-4-yl)oxy)methyl)bicyclo[1.1.1]pentan-1-yl)methyl)-N14-((S)-1-((2S,4R)-4-hydroxy-2-((4-(4-methylthiazol-5-yl)benzyl)carbamoyl)pyrrolidin-1-yl)-3,3-dimethyl-1-oxobutan-2-yl)tetradecanediamide], the “BRM HiBit Degradation Maximum (%)” value at HiBit-BRM fusion protein is “B (“B” indicates maximum degradation ≥ 50%)”. Further, the Dmax in test [1] is below 50%.

On to `Nc1nnc(-c2ccccc2O)cc1OCC12CC(CNC(=O)CCCCCCOc3cccc4c3C(=O)N(C3CCC(=O)NC3=O)C4=O)(C1)C2` (stereo not shown) [Compound 4, N-[[3-([[3-amino-6-(2-hydroxyphenyl)pyridazin-4-yl]oxy]methyl)bicyclo[1.1.1]pentan-1-yl]methyl]-7-[[2-(2,6-dioxopiperidin-3-yl)-1,3-dioxoisoindol-4-yl]oxy]heptanamide], for which the “BRM HiBit Degradation Maximum (%)” value on HiBit-BRM fusion protein was “C (“C” indicates maximum degradation < 50%)”. Also, in test [1], the Dmax was below 50%.

On to `Nc1nnc(-c2ccccc2O)cc1OCC12CC(CNC(=O)C3CC3CNC(=O)COc3cccc4c3C(=O)N(C3CCC(=O)NC3=O)C4=O)(C1)C2` (stereo not shown) [Compound 12, N-[[3-([[3-amino-6-(2-hydroxyphenyl)pyridazin-4-yl]oxy]methyl)bicyclo[1.1.1]pentan-1-yl]methyl]-2-[(2-[[2-(2,6-dioxopiperidin-3-yl)-1,3-dioxoisoindol-4-yl]oxy]acetamido)methyl]cyclopropane-1-carboxamide], for which the “BRM HiBit Degradation Maximum (%)” value on HiBit-BRM fusion protein is “C (“C” indicates maximum degradation < 50%)”. Also, the Dmax in test [1] was below 50%.

For the compound `Nc1nnc(-c2ccccc2O)cc1OCCC12CC(NC(=O)CCCCCCCOc3cccc4c3C(=O)N(C3CCC(=O)NC3=O)C4=O)(C1)C2` (stereo not shown) [Compound 21, N-[3-(2-[[3-amino-6-(2-hydroxyphenyl)pyridazin-4-yl]oxy]ethyl)bicyclo[1.1.1]pentan-1-yl]-8-[[2-(2,6-dioxopiperidin-3-yl)-1,3-dioxoisoindol-4-yl]oxy]octanamide], on HiBit-BRM fusion protein, the “BRM HiBit Degradation Maximum (%)” value was “C (“C” indicates maximum degradation < 50%)”. The Dmax in test [1] is below 50%.

Regarding `Nc1nnc(-c2ccccc2O)cc1OCC12CC(C(=O)NCCOCCOCCNC(=O)COc3ccc4c(c3)C(=O)N(C3CCC(=O)NC3=O)C4=O)(C1)C2` (stereo not shown) [Compound 91, 3-(((3-amino-6-(2-hydroxyphenyl)pyridazin-4-yl)oxy)methyl)-N-(2-(2-(2-(2-((2-(2,6-dioxopiperidin-3-yl)-1,3-dioxoisoindolin-5-yl)oxy)acetamido)ethoxy)ethoxy)ethyl)bicyclo[1.1.1]pentane-1-carboxamide], the “BRM HiBit Degradation Maximum (%)” value on HiBit-BRM fusion protein is given as “C (“C” indicates maximum degradation < 50%)”. In addition, the Dmax in test [1] was below 50%.

As to `Nc1nnc(-c2ccccc2O)cc1OCC12CC(C(=O)NCCCCCCCCNc3ccc4c(c3)C(=O)N(C3CCC(=O)NC3=O)C4=O)(C1)C2` (stereo not shown) [Compound 65, 3-(((3-amino-6-(2-hydroxyphenyl)pyridazin-4-yl)oxy)methyl)-N-(8-((2-(2,6-dioxopiperidin-3-yl)-1,3-dioxoisoindolin-5-yl)amino)octyl)bicyclo[1.1.1]pentane-1-carboxamide], the “BRM HiBit Degradation Maximum (%)” value on HiBit-BRM fusion protein is “C (“C” indicates maximum degradation < 50%)”. Further, in test [1], the Dmax is below 50%.

Take `Nc1nnc(-c2ccccc2O)cc1OCC12CC(CNC(=O)CCCOc3cccc4c3C(=O)N(C3CCC(=O)NC3=O)C4=O)(C1)C2` (stereo not shown) [Compound 2, N-[[3-([[3-amino-6-(2-hydroxyphenyl)pyridazin-4-yl]oxy]methyl)bicyclo[1.1.1]pentan-1-yl]methyl]-4-[[2-(2,6-dioxopiperidin-3-yl)-1,3-dioxoisoindol-4-yl]oxy]butanamide]: the “BRM HiBit Degradation Maximum (%)” value on HiBit-BRM fusion protein is “C (“C” indicates maximum degradation < 50%)”. For the same compound, the Dmax in test [1] was below 50%.

For `Nc1nnc(-c2ccccc2O)cc1OCC12CC(C(=O)NCCCC#Cc3ccc4c(c3)C(=O)N(C3CCC(=O)NC3=O)C4=O)(C1)C2` (stereo not shown) [Compound 89, 3-(((3-amino-6-(2-hydroxyphenyl)pyridazin-4-yl)oxy)methyl)-N-(5-(2-(2,6-dioxopiperidin-3-yl)-1,3-dioxoisoindolin-5-yl)pent-4-yn-1-yl)bicyclo[1.1.1]pentane-1-carboxamide], at HiBit-BRM fusion protein, the “BRM HiBit Degradation Maximum (%)” value is listed as “C (“C” indicates maximum degradation < 50%)”. Besides, in test [1], the Dmax was below 50%.

For `Nc1nnc(-c2ccccc2O)cc1OCC12CC(C(=O)NCCCCCNc3ccc4c(c3)C(=O)N(C3CCC(=O)NC3=O)C4=O)(C1)C2` (stereo not shown) [Compound 63, 3-(((3-amino-6-(2-hydroxyphenyl)pyridazin-4-yl)oxy)methyl)-N-(5-((2-(2,6-dioxopiperidin-3-yl)-1,3-dioxoisoindolin-5-yl)amino)pentyl)bicyclo[1.1.1]pentane-1-carboxamide; formic acid], on HiBit-BRM fusion protein, the “BRM HiBit Degradation Maximum (%)” value is “C (“C” indicates maximum degradation < 50%)”. In addition, the Dmax in test [1] is below 50%.

On to `Nc1nnc(-c2ccccc2O)cc1OCC12CC(C(=O)N3CCN(c4ccc5c(c4)C(=O)N(C4CCC(=O)NC4=O)C5=O)CC3)(C1)C2` (stereo not shown) [Compound 54, 5-(4-(3-(((3-amino-6-(2-hydroxyphenyl)pyridazin-4-yl)oxy)methyl)bicyclo[1.1.1]pentane-1-carbonyl)piperazin-1-yl)-2-(2,6-dioxopiperidin-3-yl)isoindoline-1,3-dione], for which, at HiBit-BRM fusion protein, the “BRM HiBit Degradation Maximum (%)” value is on record as “C (“C” indicates maximum degradation < 50%)”. Also, the Dmax in test [1] is below 50%.

Regarding `Nc1nnc(-c2ccccc2O)cc1OCC12CC(C(=O)NCCCCCCCCNc3cccc4c3CN(C3CCC(=O)NC3=O)C4=O)(C1)C2` (stereo not shown) [Compound 58, 3-(((3-amino-6-(2-hydroxyphenyl)pyridazin-4-yl)oxy)methyl)-N-(8-((2-(2,6-dioxopiperidin-3-yl)-1-oxoisoindolin-4-yl)amino)octyl)bicyclo[1.1.1]pentane-1-carboxamide], the “BRM HiBit Degradation Maximum (%)” value at HiBit-BRM fusion protein was “C (“C” indicates maximum degradation < 50%)”. The Dmax in test [1] is below 50%.

In the case of `Nc1nnc(-c2ccccc2O)cc1OCC12CC(C(=O)N3CCC(CCCCN4CCN(c5ccc6c(c5)C(=O)N(C5CCC(=O)NC5=O)C6=O)CC4)CC3)(C1)C2` (stereo not shown) [Compound 95, 5-(4-(4-(1-(3-(((3-amino-6-(2-hydroxyphenyl)pyridazin-4-yl)oxy)methyl)bicyclo[1.1.1]pentane-1-carbonyl)piperidin-4-yl)butyl)piperazin-1-yl)-2-(2,6-dioxopiperidin-3-yl)isoindoline-1,3-dione; formic acid], the “BRM HiBit Degradation Maximum (%)” value at HiBit-BRM fusion protein is “B (“B” indicates maximum degradation ≥ 50%)”. For the same compound, the Dmax in test [1] was above 50%.

On to `Nc1nnc(-c2ccccc2O)cc1OCCC12CC(NC(=O)CCCCCCCCNc3cccc4c3C(=O)N(C3CCC(=O)NC3=O)C4=O)(C1)C2` (stereo not shown) [Compound 23, N-[3-(2-[[3-amino-6-(2-hydroxyphenyl)pyridazin-4-yl]oxy]ethyl)bicyclo[1.1.1]pentan-1-yl]-9-[[2-(2,6-dioxopiperidin-3-yl)-1,3-dioxoisoindol-4-yl]amino]nonanamide], for which the “BRM HiBit Degradation Maximum (%)” value on HiBit-BRM fusion protein was “C (“C” indicates maximum degradation < 50%)”. In addition, in test [1], the Dmax was below 50%.

Take `Nc1nnc(-c2ccccc2O)cc1OCCC12CC(NC(=O)CCCCOc3cccc4c3C(=O)N(C3CCC(=O)NC3=O)C4=O)(C1)C2` (stereo not shown) [Compound 19, N-(3-(2-((3-amino-6-(2-hydroxyphenyl)pyridazin-4-yl)oxy)ethyl)bicyclo[1.1.1]pentan-1-yl)-5-((2-(2,6-dioxopiperidin-3-yl)-1,3-dioxoisoindolin-4-yl)oxy)pentanamide]: the “BRM HiBit Degradation Maximum (%)” value at HiBit-BRM fusion protein is reported as “C (“C” indicates maximum degradation < 50%)”. In addition, the Dmax in test [1] is below 50%.

In the case of `Nc1nnc(-c2ccccc2O)cc1OCC12CC(C(=O)N3CC4(CCN(CCCNc5ccc6c(c5)C(=O)N(C5CCC(=O)NC5=O)C6=O)CC4)C3)(C1)C2` (stereo not shown) [Compound 98, 5-((3-(2-(3-(((3-amino-6-(2-hydroxyphenyl)pyridazin-4-yl)oxy)methyl)bicyclo[1.1.1]pentane-1-carbonyl)-2,7-diazaspiro[3.5]nonan-7-yl)propyl)amino)-2-(2,6-dioxopiperidin-3-yl)isoindoline-1,3-dione; formic acid], the “BRM HiBit Degradation Maximum (%)” value at HiBit-BRM fusion protein was “B (“B” indicates maximum degradation ≥ 50%)”. The Dmax in test [1] is below 50%.
